Experimental data from article PMC10682101, “In vitro pharmacological characterization of standard and new lysophosphatidic acid receptor antagonists using dynamic mass redistribution assay” (Frontiers in Pharmacology, 2023).
“Also recorded” adds a separate entry of the source. Where two headings read alike, the source gives them in different places.

Tests used:
CHO wild-type cells [1] = assay: DMR assay in CHO wild-type cells (control); type: cell-based; conditions: for DMR response: CHO cells
Experimental: Confluent cells were sub-cultured using trypsin/EDTA and used for experiments. Cells were seeded at a density of 20,000 cells/well in 30 µL into fibronectin-coated EnspireTM-LC 384-well plates and cultured for 20 h to form a confluent monolayer. On the day of the experiment, the cells were manually washed twice and maintained with assay buffer (HBSS with 20 mM HEPES, 0.01% BSA) for 90 min before DMR experiments. DMR was monitored in real time with a temporal resolution of 44 s throughout the assay. Experiments were performed at 37°C using an EnSight Multimode Plate Reader (PerkinElmer). The agonism protocol was as follows: before addition of the ligand, the DMR signal was measured for 5 min, and the average of the signals recorded during this period was set as the baseline (pm = 0). Compounds are added manually in a volume of 10 µL, and the triggered DMR signals were recorded for 60 min. The antagonism protocol was as follows: antagonists were added manually 25 min before reading the 5 min baseline. […] Responses were described in the form of picometer shift over time (seconds) following the subtraction of values from vehicle-treated wells. Maximum picometer (pm) modification (peak) and area under the curve (AUC) were used to determine the agonist response.

human LPA1 receptor [2] = target: T1, human LPA1 receptor (Homo sapiens, UniProt Q92633); assay: Dynamic mass redistribution (DMR) assay in CHOLPA1 cells; conditions: for DMR response: CHOLPA1 cells; for EC50: Agonism pEC50, CHOLPA1, DMR; for Shift of the concentration–response curve to LPA: antagonism protocol; for Shift of the concentration–response curve to LPA / Effect on LPA maximal effect: 1 µM; for Effect on LPA maximal effect: tested as antagonist; for Agonism Emax: negative DMR signal
Experimental: All data were analyzed using GraphPad Prism 9.4 (La Jolla, CA, United States). Concentration–response curves were fitted using the four-parameter log-logistic equation. Data are expressed in the form mean ± s.e.m. across n experiments performed in duplicate. Agonist potency is expressed in the form pEC50, which is the negative logarithm to base 10 of the agonist molar concentration that produces 50% of the maximal possible effect of that agonist. […] In practice, equiactive concentrations of the agonist in the absence ([A]) and presence ([A’]) of a non-competitive antagonist ([B]) were compared in a double reciprocal plot describing a straight line, and pKB was derived from the equation: pKB = log[(slope—1)/[B]]. […] Maximal effect data were analyzed using the Student’s t-test or a one-way ANOVA followed by Dunnett’s post-hoc test.

human LPA2 receptor [3] = target: T2, human LPA2 receptor (Homo sapiens, UniProt Q9HBW0); assay: Dynamic mass redistribution (DMR) assay in CHOLPA2 cells; conditions: for DMR response: CHOLPA2 cells; for DMR effect per se / Agonism Emax / Agonism pEC50 / Shift of the concentration–response curve to LPA: CHOLPA2, DMR; for DMR effect per se: concentration–response up to highest concentration tested; for Agonism Emax / Agonism pEC50: negative DMR signal, peak, up to 10 µM (compound 35 up to 1 µM), °inactive at 10 μM; for Shift of the concentration–response curve to LPA: antagonism protocol, 1 µM
Experimental: Confluent cells were sub-cultured using trypsin/EDTA and used for experiments. Cells were seeded at a density of 20,000 cells/well in 30 µL into fibronectin-coated EnspireTM-LC 384-well plates and cultured for 20 h to form a confluent monolayer. On the day of the experiment, the cells were manually washed twice and maintained with assay buffer (HBSS with 20 mM HEPES, 0.01% BSA) for 90 min before DMR experiments. DMR was monitored in real time with a temporal resolution of 44 s throughout the assay. Experiments were performed at 37°C using an EnSight Multimode Plate Reader (PerkinElmer). The agonism protocol was as follows: before addition of the ligand, the DMR signal was measured for 5 min, and the average of the signals recorded during this period was set as the baseline (pm = 0). Compounds are added manually in a volume of 10 µL, and the triggered DMR signals were recorded for 60 min. […] Responses were described in the form of picometer shift over time (seconds) following the subtraction of values from vehicle-treated wells. Maximum picometer (pm) modification (peak) and area under the curve (AUC) were used to determine the agonist response.
All data were analyzed using GraphPad Prism 9.4 (La Jolla, CA, United States). Concentration–response curves were fitted using the four-parameter log-logistic equation. Data are expressed in the form mean ± s.e.m. across n experiments performed in duplicate. […] In practice, equiactive concentrations of the agonist in the absence ([A]) and presence ([A’]) of a non-competitive antagonist ([B]) were compared in a double reciprocal plot describing a straight line, and pKB was derived from the equation: pKB = log[(slope—1)/[B]]. […] Maximal effect data were analyzed using the Student’s t-test or a one-way ANOVA followed by Dunnett’s post-hoc test.

LPA1 = tested on: LPA1; set-up: method as in Cheng et al., 2021; conditions: LPA1 antagonist, calcium mobilization; ref Cheng et al., 2021; cited from earlier work
[4] = set-up: method as in Palmer et al., 2018; conditions: patients with idiopathic pulmonary fibrosis, ref Palmer et al., 2018, cited from earlier work
human LPA1 receptor [5] = target: T1, human LPA1 receptor; assay: Calcium mobilization assay in CHOLPA1 cells; conditions: for Effect per se: 1 µM, data not shown; for Shift of the concentration–response curve to LPA: antagonism protocol (compound 35, compound 20 at 1 µM); for Effect on LPA maximal effect: tested as antagonist
human LPA2 receptor [6] = target: T2, human LPA2 receptor; assay: Calcium mobilization assay in CHOLPA2 cells; conditions: CHOLPA2, calcium mobilization; for Effect per se / Shift of the concentration–response curve to LPA: 1 µM; for Effect per se: data not shown; for Agonism Emax / Agonism pEC50: #inactive at 1 μM; for Shift of the concentration–response curve to LPA: antagonism protocol
LPA2 receptor = target: LPA2 receptor; set-up: method as in Beck et al., 2008; conditions: ref Beck et al., 2008, cited from earlier work
CHO wild-type cells [7] = assay: Calcium mobilization assay in CHO wild-type cells (control); type: cell-based; conditions: micromolar concentration
Experimental: Cells were seeded at a density of 50,000 cells/well in 100 μL into black, clear-bottom 96-well plates. The following day, cells were incubated with medium supplemented with 2.5 mM probenecid, 3 μM of the calcium-sensitive fluorescent dye Fluo-4 AM, and 0.01% pluronic acid for 30 min at 37°C. After the incubation period, the loading solution was aspirated, and 100 μL of HBSS supplemented with 20 mM HEPES, 2.5 mM probenecid, and 500 μM Brilliant Black was added. Serial dilutions of compounds were carried out in HBSS/HEPES (20 mM) buffer containing 0.01% BSA. Cell culture and drug plates were placed into a fluorimetric imaging plate reader (FlexStation II, Molecular Devices, Sunnyvale, CA), and fluorescence changes were measured. Online additions were carried out with a volume of 50 μL/well. […] To facilitate drug diffusion into the wells, the experiments were performed at 37°C, and three cycles of mixing (25 μL from each well moved up and down three times) were performed immediately after injection of antagonists into the wells. Agonist effects were expressed in the form of maximum percentage change over baseline fluorescence. Baseline fluorescence was measured in wells treated with vehicle.

LPA1 receptor = conditions: 2017, cited from earlier work
[8] = tested on: human lung fibroblast proliferation; set-up: method as in Qian et al., 2012; conditions: inhibiting LPA-induced human lung fibroblast proliferation; ref Qian et al., 2012; cited from earlier work
[9] = set-up: method as in Allanore et al., 2018; conditions: phase II, diffuse cutaneous systemic sclerosis; ref Allanore et al., 2018; cited from earlier work
[10] = CHOLPA1, calcium mobilization, *inactive at 0.1 µM
[11] = negative DMR signal (inverse agonism), peak, up to 10 µM (compound 35 up to 1 µM), °inactive at 10 μM
[12] = CHOLPA1, calcium mobilization, #inactive at 1 μM
[13] = CHOLPA1, DMR, peak, up to 10 µM (compound 35 up to 1 µM), °inactive at 10 μM

T2 sequence (Q9HBW0 whole entry): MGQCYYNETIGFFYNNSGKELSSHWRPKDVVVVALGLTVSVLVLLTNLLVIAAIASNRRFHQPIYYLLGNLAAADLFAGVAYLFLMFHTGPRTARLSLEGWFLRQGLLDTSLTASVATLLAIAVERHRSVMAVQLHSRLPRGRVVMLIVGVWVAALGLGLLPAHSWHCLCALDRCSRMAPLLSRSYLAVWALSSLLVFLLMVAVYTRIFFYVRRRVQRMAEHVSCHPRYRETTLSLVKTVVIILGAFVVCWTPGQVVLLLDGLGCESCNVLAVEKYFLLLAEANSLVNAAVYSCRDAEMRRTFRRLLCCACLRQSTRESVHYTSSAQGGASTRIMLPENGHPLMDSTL
T1 sequence (Q92633 whole entry): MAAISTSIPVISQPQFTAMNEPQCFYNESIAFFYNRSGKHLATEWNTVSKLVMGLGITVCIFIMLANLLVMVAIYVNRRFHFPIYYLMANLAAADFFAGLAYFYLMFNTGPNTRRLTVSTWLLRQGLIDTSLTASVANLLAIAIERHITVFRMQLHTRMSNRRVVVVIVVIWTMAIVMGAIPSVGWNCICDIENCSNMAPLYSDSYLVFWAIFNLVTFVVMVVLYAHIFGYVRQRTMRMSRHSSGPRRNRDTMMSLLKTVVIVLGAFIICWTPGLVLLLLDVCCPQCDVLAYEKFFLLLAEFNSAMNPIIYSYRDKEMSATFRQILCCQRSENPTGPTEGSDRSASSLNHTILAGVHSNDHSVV

## Nc1ncnc2c1ncn2[C@@H]1O[C@H](COP(=O)(O)OP(=O)(O)OP(=O)(O)O)[C@@H](O)[C@H]1O [ATP]
CHO wild-type cells [1]; ATP 100 μM
  DMR response: 156 ± 11 pm
Human LPA1 receptor [2]; ATP 100 μM
  DMR response: 84 ± 6 pm
Human LPA2 receptor [3]; ATP 100 μM
  DMR response: 96 ± 13 pm

## Cc1noc(-c2ccc(-c3ccc(C4(C(=O)O)CC4)cc3)cc2)c1NC(=O)O[C@H](C)c1ccccc1 [BMS-986020]
CHO wild-type cells [1]; compound 10 μM, mean ± s.e.m.
  DMR response: −39 ± 17 pm
LPA1
  pKB: ~8
[4]; compared with placebo
  Rate of decline in forced vital capacity: slower rate of decline in forced vital capacity
[4]; study interrupted
  Cholecystitis: three cases of cholecystitis
  Hepatic enzymes: elevation in hepatic enzymes
Human LPA1 receptor [5]; CHOLPA1, calcium mobilization
  Effect per se: did not produce any effect per se
  Shift of the concentration–response curve to LPA: shifted the concentration–response curve to LPA to the right
  Effect on LPA maximal effect: produced a reduction in LPA maximal effect
Human LPA1 receptor [5]; [10]
  Agonism Emax: Inactive*
  Agonism pEC50: Inactive*
Human LPA2 receptor [6]
  Effect per se: did not produce any effect per se
  Agonism Emax: Inactive^#
  Agonism pEC50: Inactive^#
  Shift of the concentration–response curve to LPA: shifted the concentration–response curve to LPA to the right
Human LPA1 receptor [2]
  Kb: 79.4 nM
Human LPA1 receptor [2]; [11]
  EC50: 87.1 nM
Human LPA1 receptor [2]; CHOLPA1, DMR
  Shift of the concentration–response curve to LPA: shifted the concentration–response curve to LPA to the right
  Effect on LPA maximal effect: produced a reduction in LPA maximal effect; also recorded: slight but statistically significant reduction in LPA maximal effect
Human LPA1 receptor [2]; compound 10 μM, mean ± s.e.m.
  DMR response: −134 ± 28 pm
Human LPA2 receptor [3]
  DMR effect per se: inactive per se, or slightly active only at the higher concentration tested
  Agonism Emax: Crc incomplete
  Agonism pEC50: Crc incomplete
Human LPA2 receptor [3]; compound 10 μM, mean ± s.e.m.
  DMR response: −79 ± 18 pm

## Cc1csc2c(N[C@@H](C)CN3CCN(S(=O)(=O)c4ccc(Cl)c(Cl)c4)CC3)ncnc12 [Compound 35]
CHO wild-type cells [1]; compound 35 1 μM
  DMR response: −27 ± 13 pm
LPA2 receptor; inhibition of stimulant activity of LPA on Ca2+ mobilization, LPA2-transfected cells
  pIC50: 7.77
LPA2 receptor
  Selectivity for LPA2 vs. LPA1 and LPA3 receptors: highly selective
Human LPA1 receptor [5]; Antagonism pKB/pA2, CHOLPA1, calcium mobilization, LPA curve in absence and presence of 1 µM compound
  Kb: > 1000 nM
Human LPA1 receptor [5]; CHOLPA1, calcium mobilization
  Effect per se: did not produce any effect per se
  Shift of the concentration–response curve to LPA: did not shift the concentration–response curve to LPA to the right
Human LPA1 receptor [5]; [12]
  Agonism Emax: Inactive^#
  Agonism pEC50: Inactive^#
Human LPA2 receptor [6]
  Effect per se: did not produce any effect per se
  Agonism Emax: Inactive^#
  Agonism pEC50: Inactive^#
  Shift of the concentration–response curve to LPA: shifted the concentration–response curve to LPA to the right
Human LPA1 receptor [2]; CHOLPA1, DMR
  Shift of the concentration–response curve to LPA: did not shift the concentration–response curve to LPA to the right
Human LPA1 receptor [2]; CHOLPA1, DMR, negative DMR signal (inverse agonism), peak, up to 10 µM (compound 35 up to 1 µM), °inactive at 10 μM
  Agonism pEC50: Crc incomplete
Human LPA1 receptor [2]; [13]
  Agonism Emax: Crc incomplete
Human LPA1 receptor [2]; CHOLPA1, DMR, up to highest concentration tested (10 μM; compound 35 1 µM)
  DMR effect per se: only a slight negative signal at the highest concentration tested
Human LPA1 receptor [2]; compound 35 1 μM
  DMR response: −101 ± 10 pm
Human LPA2 receptor [3]
  Shift of the concentration–response curve to LPA: shifted the concentration–response curve to LPA to the right
  DMR effect per se: inactive per se, or slightly active only at the higher concentration tested
  Agonism Emax: Crc incomplete
  Agonism pEC50: Crc incomplete
Human LPA2 receptor [3]; compound 35 1 μM
  DMR response: −88 ± 6 pm

## Cc1noc(-c2ccc(O[C@H]3CC[C@@H](C(=O)O)CC3)cc2)c1NC(=O)O[C@H](C)c1ccccc1Cl [Compound CHI]
CHO wild-type cells [1]; compound 10 μM, mean ± s.e.m.
  DMR response: −4 ± 22 pm
CHO wild-type cells [1]; CHO wild-type cells, 10 µM
  DMR effect per se: inactive
Human LPA1 receptor [5]; CHOLPA1, calcium mobilization
  Effect per se: inactive
Human LPA1 receptor [5]; pKB, CHOLPA1, calcium mobilization, Gaddum method, 1 µM antagonist
  Kb: 57.5 nM
Human LPA2 receptor [6]
  Effect per se: inactive
  Shift of the concentration–response curve to LPA: did not shift the concentration–response curve to LPA
Human LPA1 receptor [2]; [11]
  EC50: 309 nM
Human LPA1 receptor [2]; CHOLPA1, DMR
  Shift of the concentration–response curve to LPA: active as an LPA1 antagonist only in calcium mobilization experiments
Human LPA1 receptor [2]; [13]
  Agonism Emax: −68 ± 13 pm
Human LPA1 receptor [2]; compound 10 μM, mean ± s.e.m.
  DMR response: −78 ± 18 pm
Human LPA2 receptor [3]
  Shift of the concentration–response curve to LPA: did not shift the concentration–response curve to LPA
  DMR effect per se: inactive
Human LPA2 receptor [3]; compound 10 μM, mean ± s.e.m.
  DMR response: −55 ± 19 pm

## CCCCCCCC/C=C\CCCCCCCC(=O)OC[C@@H](O)COP(=O)([O-])O.[Na+] [LPA, Oleoyl-L-α-lysophosphatidic acid sodium salt]
CHO wild-type cells [1]; DMR, micromolar concentration
  Effect in CHO wild-type cells: elicited some stimulant effects
CHO wild-type cells [7]
  Effect in CHO wild-type cells: elicited some stimulant effects
LPA1 receptor; native LPA1 receptor, ref Sattikar et al.
  pEC50: ~7.5
LPA1 receptor; recombinant LPA1 receptor, ref Swaney et al., 2011, Shimizu and Nakayama
  pEC50: ~7.5
Human LPA1 receptor [5]; CHOLPA1, calcium mobilization, LPA 0.01 nM–10 µM
  pEC50 (stimulant effect of LPA): 7.25 (7.19–7.31)
Human LPA1 receptor [2]; CHOLPA1, DMR, peak, LPA 0.01 nM–10 µM
  pEC50 (stimulant effect of LPA): 7.16 (6.89–7.43)

## Cc1nnn(-c2ccc(-c3ccc(C4(C(=O)O)CC4)cc3)cc2)c1NC(=O)O[C@H](C)c1ccccc1 [RO 6842262]
CHO wild-type cells [1]; compound 10 μM, mean ± s.e.m.
  DMR response: −36 ± 12 pm
[8]
  Potency relative to KI 16425: 10 fold
Human LPA1 receptor [5]; Antagonism pKB (pKB/pA2), CHOLPA1, calcium mobilization, Gaddum method, LPA curve in absence and presence of 0.1 µM antagonist
  Kb: 2.04 nM
Human LPA1 receptor [5]; CHOLPA1, calcium mobilization
  Effect per se: did not produce any effect per se
  Shift of the concentration–response curve to LPA: shifted the concentration–response curve to LPA to the right
  Effect on LPA maximal effect: reduced the LPA maximal effect in a concentration-dependent manner
Human LPA1 receptor [5]; [10]
  Agonism Emax: Inactive*
  Agonism pEC50: Inactive*
Human LPA1 receptor [5]; assay not specified
  LPA1 selectivity (vs. LPA2): > 30 fold
Human LPA2 receptor [6]
  Effect per se: did not produce any effect per se
  Agonism Emax: Inactive^#
  Agonism pEC50: Inactive^#
Human LPA1 receptor [2]; [11]
  EC50: 49 nM
Human LPA1 receptor [2]; CHOLPA1, DMR
  Shift of the concentration–response curve to LPA: shifted the concentration–response curve to LPA to the right
  Effect on LPA maximal effect: without changing the maximal effect
Human LPA1 receptor [2]; [13]
  Agonism Emax: −80 ± 16 pm
Human LPA1 receptor [2]; compound 10 μM, mean ± s.e.m.
  DMR response: −66 ± 16 pm
Human LPA2 receptor [3]
  DMR effect per se: inactive per se, or slightly active only at the higher concentration tested
  Agonism Emax: Inactive°
  Agonism pEC50: Inactive°
Human LPA2 receptor [3]; compound 10 μM, mean ± s.e.m.
  DMR response: 3 ± 21 pm

## COc1ccc(C(=O)NC2(C(=O)O)Cc3ccccc3C2)cc1OCCc1cccc(C)c1 [SAR-100842]
[9]
  Improvement in the modified Rodnan skin thickness score: not statistically significant
  Tolerability: well-tolerated
